Laboratory results published in US10508104B2, “6-hydroxy-5-(phenyl/heteroarylsulfonyl)pyrimidin-4(1H)-one as APJ agonists” (Bristol-Myers Squibb Company, priority 2016, dated 2019).
Where two headings read alike, the source gives them in different places.

Biological target: human APJ receptor (Homo sapiens (Human), UniProt P35414)
Test: Intracellular cAMP accumulation assay (APJ hcAMP, HTRF)
Assay type: cell-based
Settings: read-out: Human APJ cAMP EC50 Potency range
Summary of the method: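 HEK293 cells stably expressing human APJ, 5,000 per well, incubated 30 min at rt with compound, […] and 2 μM forskolin. cAMP measured by HTRF against a cAMP standard curve as inhibition of forskolin-driven production. EC50 from variable-slope sigmoidal fit.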

[1] = HEK293 cells stably expressing human APJ receptor, inhibition of forskolin-mediated cAMP production

human APJ receptor, sequence (P35414 whole entry): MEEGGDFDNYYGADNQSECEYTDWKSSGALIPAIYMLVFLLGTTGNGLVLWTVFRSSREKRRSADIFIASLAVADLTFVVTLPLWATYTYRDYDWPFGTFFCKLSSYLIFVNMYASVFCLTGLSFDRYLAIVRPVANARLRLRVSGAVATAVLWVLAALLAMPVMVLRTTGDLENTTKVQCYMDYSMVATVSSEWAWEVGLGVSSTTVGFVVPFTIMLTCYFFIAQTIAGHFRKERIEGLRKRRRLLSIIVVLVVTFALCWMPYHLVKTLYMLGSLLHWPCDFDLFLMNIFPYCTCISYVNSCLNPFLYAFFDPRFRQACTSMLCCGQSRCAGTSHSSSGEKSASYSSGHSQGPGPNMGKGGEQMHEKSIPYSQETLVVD

EC50 (human APJ, cAMP accumulation) [nM]	EC50 [1] [nM]	SMILES
0.01 to 10		COC[C@@H](c1ccccc1)n1c(COC(C)C)nc(=O)c(S(=O)(=O)c2ccc(F)c(F)c2)c1O [Example 337, 5-(3,4-difluorobenzenesulfonyl)-6-hydroxy-1-[(1R)-2-methoxy-1-phenylethyl]-2-[(propan-2-yloxy)methyl]-1,4-dihydropyrimidin-4-one]
0.01 to 10		CCOCc1nc(=O)c(S(=O)(=O)c2ccc(-c3ccnc(F)c3C)c(F)c2)c(O)n1[C@@H](COC)c1ccccc1 [Example 338, 2-(ethoxymethyl)-5-[3-fluoro-4-(2-fluoro-3-methylpyridin-4-yl)benzenesulfonyl]-6-hydroxy-1-[(1R)-2-methoxy-1-phenylethyl]-1,4-dihydropyrimidin-4-one]
0.01 to 10		CCOCc1nc(=O)c(S(=O)(=O)c2ccc(-c3ccc(F)nc3C)c(F)c2)c(O)n1[C@@H](COC)c1ccccc1 [Example 339, 2-(ethoxymethyl)-5-[3-fluoro-4-(6-fluoro-2-methylpyridin-3-yl)benzenesulfonyl]-6-hydroxy-1-[(1R)-2-methoxy-1-phenylethyl]-1,4-dihydropyrimidin-4-one]
0.01 to 10		CCOCc1nc(=O)c(S(=O)(=O)c2ccc(-c3ccncc3C)c(F)c2)c(O)n1[C@@H](COC)c1ccccc1 [Example 340, 2-(ethoxymethyl)-5-[3-fluoro-4-(3-methylpyridin-4-yl)benzenesulfonyl]-6-hydroxy-1-[(1R)-2-methoxy-1-phenylethyl]-1,4-dihydropyrimidin-4-one]
0.01 to 10		CCOCc1nc(=O)c(S(=O)(=O)c2ccc(-c3ccc(F)nc3)c(F)c2)c(O)n1[C@@H](COC)c1ccccc1 [Example 341, 2-(ethoxymethyl)-5-[3-fluoro-4-(6-fluoropyridin-3-yl)benzenesulfonyl]-6-hydroxy-1-[(1R)-2-methoxy-1-phenylethyl]-1,4-dihydropyrimidin-4-one]
10 to 100		CCOCc1nc(=O)c(S(=O)(=O)c2ccc(-c3ccnc(F)c3C)cc2)c(O)n1[C@H]1CCOc2ccccc21 [Example 342, 1-[(4S)-3,4-dihydro-2H-1-benzopyran-4-yl]-2-(ethoxymethyl)-5-[4-(2-fluoro-3-methylpyridin-4-yl)benzenesulfonyl]-6-hydroxy-1,4-dihydropyrimidin-4-one]
0.01 to 10		CCOCc1nc(=O)c(S(=O)(=O)c2ccc(-c3ccnc(F)c3C)c(F)c2)c(O)n1[C@@H](COC)c1cccc(C#N)c1 [Example 343, 3-[(1R)-1-[2-(ethoxymethyl)-5-[3-fluoro-4-(2-fluoro-3-methylpyridin-4-yl)benzenesulfonyl]-6-hydroxy-4-oxo-1,4-dihydropyrimidin-1-yl]-2-methoxyethyl] benzonitrile]
0.01 to 10		CCOCc1nc(=O)c(S(=O)(=O)c2ccc(-c3ccc(F)nc3C)c(F)c2)c(O)n1[C@@H](COC)c1cccc(C#N)c1 [Example 344, 3-[(1R)-1-[2-(ethoxymethyl)-5-[3-fluoro-4-(6-fluoro-2-methylpyridin-3-yl)benzenesulfonyl]-6-hydroxy-4-oxo-1,4-dihydropyrimidin-1-yl]-2-methoxyethyl] benzonitrile]
0.01 to 10		CCOCc1nc(=O)c(S(=O)(=O)c2ccc(-c3ccncc3C)c(F)c2)c(O)n1[C@@H](COC)c1cccc(C#N)c1 [Example 345, 3-[(1R)-1-[2-(ethoxymethyl)-5-[3-fluoro-4-(3-methylpyridin-4-yl)benzenesulfonyl]-6-hydroxy-4-oxo-1,4-dihydropyrimidin-1-yl]-2-methoxyethyl] benzonitrile]
0.01 to 10		CCOCc1nc(=O)c(S(=O)(=O)c2ccc(-c3ccnc(F)c3C)c(F)c2)c(O)n1C(COC)c1cccc(F)c1 (stereo not shown) [Example 346, 2-(ethoxymethyl)-5-[3-fluoro-4-(2-fluoro-3-methylpyridin-4-yl)benzenesulfonyl]-1-[1-(3-fluorophenyl)-2-methoxyethyl]-6-hydroxy-1,4-dihydropyrimidin-4-one]
0.01 to 10		CCOCc1nc(=O)c(S(=O)(=O)c2ccc(-c3ccc(F)nc3C)c(F)c2)c(O)n1C(COC)c1cccc(F)c1 (stereo not shown) [Example 347, 2-(ethoxymethyl)-5-[3-fluoro-4-(6-fluoro-2-methylpyridin-3-yl)benzenesulfonyl]-1-[1-(3-fluorophenyl)-2-methoxyethyl]-6-hydroxy-1,4-dihydropyrimidin-4-one]
0.01 to 10		CCCCc1nc(=O)c(S(=O)(=O)c2ccc(C3CC3)cc2)c(O)n1[C@@H](CC)c1cccc(C#N)c1 [Example 348, 3-[(1S)-1-[2-butyl-5-(4-cyclopropylbenzene-sulfonyl)-6-hydroxy-4-oxo-1,4-dihydropyrimidin-1-yl]propyl]benzonitrile]
100 to 300		COC[C@@H](c1ccccc1)n1c(C2CCCO2)nc(=O)c(S(=O)(=O)c2ccc(Br)cc2)c1O (stereo partly drawn) [Example 349, 5-(4-bromobenzenesulfonyl)-6-hydroxy-1-[(1R)-2-methoxy-1-phenylethyl]-2-(oxolan-2-yl)-1,4-dihydropyrimidin-4-one]
	0.01 to 10	C=C(c1cccc(C#N)c1)n1c(CCCC)nc(=O)c(S(=O)(=O)c2ccc(-c3ccncc3C)cc2)c1O [Example 360, 3-(1-(2-butyl-6-hydroxy-5-((4-(3-methylpyridin-4-yl)phenyl)sulfonyl)-4-oxopyrimidin-1 (4H)-yl)vinyl)benzonitrile]
	0.01 to 10	CCOCc1nc(=O)c(S(=O)(=O)c2ccc(C(C)(C)C)cc2)c(O)n1-c1c(CC)cccc1CC [Example 361, 5-(4-tert-butylbenzenesulfonyl)-1-(2,6-diethylphenyl)-2-(ethoxymethyl)-6-hydroxy-1,4-dihydropyrimidin-4-one]
	0.01 to 10	CCCCc1nc(=O)c(S(=O)(=O)c2ccc(C(C)(C)C)cc2)c(O)n1-c1c(CC)cccc1CC [Example 362, 2-butyl-5-(4-tert-butylbenzenesulfonyl)-1-(2,6-diethylphenyl)-6-hydroxy-1,4-dihydropyrimidin-4-one]
	0.01 to 10	CCCCc1nc(=O)c(S(=O)(=O)c2ccc(C(C)(C)C)cc2)c(O)n1-c1c(OC)cccc1OC [Example 363, 2-butyl-5-(4-tert-butylbenzenesulfonyl)-1-(2,6-dimethoxyphenyl)-6-hydroxy-1,4-dihydropyrimidin-4-one]
	0.01 to 10	CCCCc1nc(=O)c(S(=O)(=O)[C@H]2CC[C@H](OCc3ccccc3)CC2)c(O)n1-c1c(CC)cccc1CC [Example 364, 2-butyl-1-(2,6-diethylphenyl)-6-hydroxy-5-{[(1r,4r)-4-(benzyloxy)cyclohexyl]sulfonyl}-1,4-dihydropyrimidin-4-one]
	0.01 to 10	CCCCc1nc(=O)c(S(=O)(=O)[C@H]2CC[C@@H](OCc3ccccc3)CC2)c(O)n1-c1c(CC)cccc1CC [Example 365, 2-butyl-1-(2,6-diethylphenyl)-6-hydroxy-5-{[(1s,4s)-4-(benzyloxy)cyclohexyl]sulfonyl}-1,4-dihydropyrimidin-4-one]
	0.01 to 10	CCCCc1nc(=O)c(S(=O)(=O)[C@H]2CC[C@H](OCc3ccccc3)CC2)c(O)n1-c1c(OC)cccc1OC [Example 366, 2-butyl-1-(2,6-dimethoxyphenyl)-6-hydroxy-5-{[(1r,4r)-4-(benzyloxy)cyclohexyl]sulfonyl}-1,4-dihydropyrimidin-4-one]
	0.01 to 10	CCCCc1nc(=O)c(S(=O)(=O)[C@H]2CC[C@@H](OCc3ccccc3)CC2)c(O)n1-c1c(OC)cccc1OC [Example 367, 2-butyl-1-(2,6-dimethoxyphenyl)-6-hydroxy-5-{[(1s,4s)-4-(benzyloxy)cyclohexyl]sulfonyl}-1,4-dihydropyrimidin-4-one]
	0.01 to 10	COC[C@@H](c1cc(F)cc(F)c1)n1c(COC(C)C)nc(=O)c(S(=O)(=O)c2ccc(Br)cc2)c1O [Example 368, 5-(4-bromobenzenesulfonyl)-1-[(1R)-1-(3,5-difluorophenyl)-2-methoxyethyl]-6-hydroxy-2-[(propan-2-yloxy)methyl]-1,4-dihydropyrimidin-4-one]
	0.01 to 10	CC[C@@H](c1cccc(C#N)c1)n1c(COC(C)C)nc(=O)c(S(=O)(=O)c2ccc(Br)cc2)c1O [Example 369, 3-[(1S)-1-[5-(4-bromobenzenesulfonyl)-6-hydroxy-4-oxo-2-[(propan-2-yloxy)methyl]-1,4-dihydropyrimidin-1-yl]propyl]benzonitrile]
	0.01 to 10	CCOCc1nc(=O)c(S(=O)(=O)c2ccc(Br)cc2)c(O)n1[C@@H](COC)c1cc(F)cc(F)c1 [Example 370, 5-(4-bromobenzenesulfonyl)-1-[(1R)-1-(3,5-difluorophenyl)-2-methoxyethyl]-2-(ethoxymethyl)-6-hydroxy-1,4-dihydropyrimidin-4-one]
	0.01 to 10	COC[C@@H](c1cccc(C#N)c1)n1c(COC(C)C)nc(=O)c(S(=O)(=O)c2ccc(Br)cc2)c1O [Example 371, 3-[(1R)-1-[5-(4-bromobenzenesulfonyl)-6-hydroxy-4-oxo-2-[(propan-2-yloxy)methyl]-1,4-dihydropyrimidin-1-yl]-2-methoxyethyl]benzonitrile]
	0.01 to 10	CC(C)OCc1nc(=O)c(S(=O)(=O)c2ccc(Br)cc2)c(O)n1[C@H](c1cccc(C#N)c1)C1CC1 [Example 372, 3-[(S)-[5-(4-bromobenzenesulfonyl)-6-hydroxy-4-oxo-2-[(propan-2-yloxy)methyl]-1,4-dihydropyrimidin-1-yl](cyclopropyl)methyl] benzonitrile]
	0.01 to 10	CCOCc1nc(=O)c(S(=O)(=O)c2ccc(-c3ccnc(F)c3C)c(F)c2)c(O)n1C(COC)c1cccc(F)c1 (stereo not shown) [Example 373, 2-(ethoxymethyl)-5-[3-fluoro-4-(2-fluoro-3-methylpyridin-4-yl)benzenesulfonyl]-1-[1-(3-fluorophenyl)-2-methoxyethyl]-6-hydroxy-1,4-dihydropyrimidin-4-one]
	0.01 to 10	CCOCc1nc(=O)c(S(=O)(=O)c2ccc(-c3ccnc(F)c3C)c(F)c2)c(O)n1C(COC)c1cccc(F)c1 (stereo not shown) [Example 374, 2-(ethoxymethyl)-5-[3-fluoro-4-(2-fluoro-3-methylpyridin-4-yl)benzenesulfonyl]-1-[1-(3-fluorophenyl)-2-methoxyethyl]-6-hydroxy-1,4-dihydropyrimidin-4-one]
